Laboratory results reported in patent publication US9248162B2, “Factor H for treatment of rheumatoid arthritis” (Baxter International Inc., priority 2013, dated 2016).
“And” between values parts separate entries of the source, which are not always exact repeats. Equal entries are not always repeated. “Also recorded” adds a separate entry of the source.

How the values were obtained:
Format in all cases: in vivo, Balb C mice
[1] = tested on: collagen antibody-induced arthritis; assay: Mouse CAIA: clinical score; design: key to Clinical Score, Summary (significance): ns: = not significant; *: = P < 0.05; **: = P < 0.01; ***: = P < 0.001
Description: (§1) The mice were treated with ArthritoMAb (anti-collagen) antibody cocktail (2 mg, i.v.) on day 1, followed 7 days later with an injection of LPS (50 μg, i.p.). On day 8, hind paw volumes were measured for each animal and distributed to various treatment groups.
Factor H was formulated in 20 mM Citrate, 150 mM NaCl, pH=6. […] Ethanercept was formulated as Enbrel™ in saline. Vehicle was formulated in 20 mM Citrate, 150 mM NaCl, pH=6. […] The dosing volume for Factor H and BX12 was 25 mL/kg (0.500 mL/20 g mouse) and adjusted accordingly for body weight.
(§2) Dosing with the different agents was started on day 8 as described in Table 3.

[2] = tested on: collagen antibody-induced arthritis; assay: Mouse CAIA: ankle histology scores (H & E); design: key to Score From H & E: Inflammation: 0: normal; 1: minimal infiltration of inflammatory cells in periarticular tissue; 2: mild infiltration; 3: moderate infiltration with moderate edema; 4: marked infiltration with marked edema; 5: severe infiltration with severe edema; key to Exostosis, Summary (significance) / Composite, Summary (significance) / Pannus, Summary (significance) / Cartilage, Summary (significance) / Inflammation, Summary (significance): ns: = not significant; *: = P < 0.05; **: = P < 0.01; ***: = P < 0.001; Composite Biohistopathology Score, group value / Composite Biohistopathology Score: scale not given here
Description: as §1, with “Balb C mice (n=10 per cohort) were used to determine the efficacy of Factor H (FH) during […]. The” for “The”
as §2
(§3) Hind paw volumes were measured on day 8, 11, 12, 13, 15, 19 and 22 (endpoint). The age at start date was 7 to 9 weeks. Body weights were measured bi-weekly to the endpoint (Table 4). At the endpoint, tissue samples were processed for histology and submitted to a pathologist for independent analysis. Sampling 1 was performed at the endpoint. The hind limbs were preserved in 10% formalin. Sampling 2 was performed at the endpoint for group 4 animals. Blood was collected by terminal cardiac puncture. The blood was processed for anti-coagulant. The kidneys were additionally preserved in formalin and followed with 70% EtOH. Samples were scored for inflammation, pannus (granulation tissue), cartilage damage, bone resorption and exostosis (Table 5).

[3] = Mouse CAIA: body weight and tolerability
Description: as §1, with “Balb C mice (n=10 per cohort) were used to determine the efficacy of Factor H (FH) during […]. The” for “The”
as §2, §3

[4] = tested on: collagen antibody-induced arthritis; assay: Mouse CAIA: ankle histology scores (H & E); design: key: 0: normal; 1: minimal; 2: mild; 3: moderate; 4: marked; 5: severe; settings: individual animal, score 0-5, endpoint day 22, listed as Group 4
Description: as §1, with “Balb C mice (n=10 per cohort) were used to determine the efficacy of Factor H (FH) during […]. The” for “The”
as §2, §3

[5] = tested on: collagen antibody-induced arthritis; assay: Mouse CAIA: ankle histology scores (H & E); design: key: 0: normal; 1: minimal infiltration of pannus in cartilage and subchondral bone; 2: mild infiltration; 3: moderate infiltration; 4: marked infiltration; 5: severe infiltration; settings: individual animal, score 0-5, endpoint day 22, listed as Group 4
Description: as §1, with “Balb C mice (n=10 per cohort) were used to determine the efficacy of Factor H (FH) during […]. The” for “The”
as §2, §3

[6] = tested on: collagen antibody-induced arthritis; assay: Mouse CAIA: ankle histology scores (H & E); design: key: 0: normal; 1: minimal infiltration of inflammatory cells in periarticular tissue; 2: mild infiltration; 3: moderate infiltration with moderate edema; 4: marked infiltration with marked edema; 5: severe infiltration with severe edema; settings: individual animal, score 0-5, endpoint day 22, listed as Group 4
Description: as §1, with “Balb C mice (n=10 per cohort) were used to determine the efficacy of Factor H (FH) during […]. The” for “The”
as §2, §3

[7] = tested on: collagen antibody-induced arthritis; assay: Mouse CAIA: ankle histology scores (H & E); design: key: 0: normal; 1: minimal to mild loss of staining density with no obvious chondrocyte loss or collagen disruption; 2: mild loss of staining density with focal mild (superficial) chondrocyte loss and/or collagen disruption; 3: moderate loss of staining density with multifocal moderate (depth to middle zone) chondrocyte loss and/or collagen disruption; 4: marked loss of staining density with multifocal marked (depth to deep zone) chondrocyte loss and/or collagen disruption; 5: severe diffuse loss of staining density with multifocal severe (depth to tide mark) chondrocyte loss and/or collagen disruption; settings: individual animal, score 0-5, endpoint day 22, listed as Group 4
Description: as §1, with “Balb C mice (n=10 per cohort) were used to determine the efficacy of Factor H (FH) during […]. The” for “The”
as §2, §3

[8] = Vehicle vs agent, Dunn's Multiple Comparison Test
[9] = ankle, group mean ± spread, 10 animals, score 0-5
[10] = histopathology score, graded 1-5, hind limbs at endpoint, group value

For Factor H, the “Clinical Score, Difference in rank sum” value [1, 8] was 8.3, the “Clinical Score, Summary (significance)” value [1, 8] was “ns” and the “Max Clin Score, Mean” value ([1]; group mean, n=10) was 33.40. The “Clinical Score, Day of Study 8, Mean” value ([1]; group mean, n=10, day 8 (start of dosing)) was 3.00, the “Clinical Score, Day of Study 11, Mean” value ([1]; group mean, n=10, day 11) was 14.60 and the “Clinical Score, Day of Study 12, Mean” value ([1]; group mean, n=10, day 12) was 33.40. The “Clinical Score, Day of Study 13, Mean” value ([1]; group mean, n=10, day 13) was 23.60, the “Clinical Score, Day of Study 16, Mean” value ([1]; group mean, n=10, day 16 (Jul. 1, 2011)) was 16.90 and the “Clinical Score, Day of Study 19, Mean” value ([1]; group mean, n=10, day 19) was 18.20. The “Clinical Score, Day of Study 22, Mean” value ([1]; group mean, n=10, day 22 (endpoint)) was 18.80, the “Day (of Max Clin Score)” value ([1]; individual animal, day of study) was 12 and the “Max Clin Score” value ([1]; individual animal, maximum over days 8 to 22, listed as BX12) was 37 and 42 (2×) and 20 and 21 and 49 and 30 and 32 and 16 and 45. The “Clinical Score, Day of Study 8” value ([1]; individual animal, score 0-60, day 8 (start of dosing), listed as BX12) was 5 (3×) and 0 (6×) and 15, the “Clinical Score, Day of Study 11” value ([1]; individual animal, score 0-60, day 11, listed as BX12) was 25 and 10 (2×) and 15 (2×) and 5 and 18 and 21 (2×) and 6 and the “Clinical Score, Day of Study 12” value ([1]; individual animal, score 0-60, day 12, listed as BX12) was 37 and 42 (2×) and 20 and 21 and 49 and 30 and 32 and 16 and 45. The “Clinical Score, Day of Study 13” value ([1]; individual animal, score 0-60, day 13, listed as BX12) was 18 and 37 and 34 and 20 (2×) and 10 and 40 and 26 and 15 and 16, the “Clinical Score, Day of Study 16” value ([1]; individual animal, score 0-60, day 16 (Jul. 1, 2011), listed as BX12) was 13 and 21 and 15 (2×) and 10 and 1 and 43 and 25 and 6 and 20 and the “Clinical Score, Day of Study 19” value ([1]; individual animal, score 0-60, day 19, listed as BX12) was 25 and 31 and 20 (2×) and 10 (3×) and 0 and 46 and 7. For the same substance, the “Clinical Score, Day of Study 22” value ([1]; individual animal, score 0-60, day 22 (endpoint), listed as BX12) was 24 and 31 and 21 and 10 and 1 and 39 and 15 and 26 and 5 and 16, the “Day (of Max Clin Score), Mean” value ([1]; listed as 'Mean', n=10, day of study) was 12.00 and the “clinical response / clinical score” value ([1]; result in words (Tables 6 and 7, FIG. 10), listed as FH) was “improved clinical response compared to vehicle control animals; also recorded: improves more over Etanercept at later time points (days 15 to 22); also recorded: lower clinical score compared to both vehicle and Etanercept”. The “Mean Maximum Clinical Score” value ([1]; scored from 0 to 60 (15/limb), sum of 4 limbs, vehicle 45.4) was 33.4^ns, the “Cartilage, Difference in rank sum” value [2, 8] was −0.75 and the “Cartilage, Summary (significance)” value [2, 8] was “ns”. The “Composite, Difference in rank sum” value [2, 8] was 3.25, the “Composite, Summary (significance)” value [2, 8] was “ns” and the “Exostosis, Difference in rank sum” value [2, 8] was 11.5. For the same substance, the “Exostosis, Summary (significance)” value [2, 8] was “* (= P < 0.05)”, the “Inflammation, Difference in rank sum” value [2, 8] was 6.45 and the “Inflammation, Summary (significance)” value [2, 8] was “ns”. The “Pannus, Difference in rank sum” value [2, 8] was 1.9, the “Pannus, Summary (significance)” value [2, 8] was “ns” and the “Composite Biohistopathology Score, group value” ([2]; ankle, group mean ± spread, 10 animals) was 3.1 ± 1.2. The “Score From H & E: Bone Resorption, group value” [2, 9] was 0.3 ± 0.2, the “Score From H & E: Cartilage Damage, group value” [2, 9] was 0.6 ± 0.2 and the “Score From H & E: Inflammation, group value” [2, 9] was 1.0 ± 0.3. For the same substance, the “Score From H & E: Pannus, group value” [2, 9] was 0.9 ± 0.3, the “Score From H & E: Periosteal/Exostotic Changes, group value” [2, 9] was 0.3 ± 0.3 and the “Composite Biohistopathology Score” value ([2]; ankle, individual animal, endpoint day 22, listed as Group 4) was 1 (3×) and 4 and 5 and 2 and 0 (2×) and 13 and 3. The “Score From H & E: Inflammation” value ([2]; ankle, individual animal, score 0-5, endpoint day 22, listed as Group 4) was 0 (4×) and 1 (3×) and 2 (2×) and 3, the “Composite Score” value ([2]; histopathology composite, hind limbs at endpoint, group value) was 3.1 ± 1.2^ns and the “Bone Resorption” value [2, 10] was 0.3 ± 0.2^ns. For the same substance, the “Cartilage Damage” value [2, 10] was 0.6 ± 0.2^ns, the Exostosis [2, 10] was 0.3 ± 0.3 and the Inflammation [2, 10] was 1.0 ± 0.3^ns. For the same substance, the Pannus [2, 10] was 0.9 ± 0.3^ns, the histopathology ([2]; result in words (Table 8, FIG. 11), listed as FH) was “inhibits exostosis; also recorded: trend toward improved inflammation and bone resorption” and the “Mean Body Weigh at Nadir” value ([3]; mouse, in vivo) was −7.4%. For the same substance, the “body weights vs. vehicle controls” value ([3]; mouse, in vivo) was “comparable to vehicle controls”, the treatment-related deaths ([3]; result in words, FH 440 mg/kg i.p. qodx7) was “no treatment-related deaths” and the “Score From H & E: Bone Resorption” value [4] was 1 and 2. For the same substance, the “Score From H & E: Periosteal/Exostotic Changes” value [4] was 3, the “Score From H & E: Pannus” value [5] was 1 (4×) and 3 and the “Score From H & E: Bone Resorption” value [6] was 0. The “Score From H & E: Cartilage Damage” value [6] was 0, the “Score From H & E: Pannus” value [6] was 2 and 0 (4×) and the “Score From H & E: Periosteal/Exostotic Changes” value [6] was 0. For the same substance, the “Score From H & E: Cartilage Damage” value [7] was 1 (4×) and 2.
